Measured values: patent US12187733B1, “5-(Substitutedphenyl)-7-Imino-7,8-Dihydropyrimido[4,5-d]pyrimidine-2,4(1H,3H)-dione analogues as anti-inflammatory agents” (KING FAISAL UNIVERSITY, priority 2023, dated 2025)

assay: Anti-inflammatory activity
Description: Anti-Inflammatory Activity

In order of falling IC50:
1. [H]/N=c1\nc(-c2cccc(OCc3ccccc3)c2)c2c(=O)[nH]c(=O)[nH]c2[nH]1 [Compound 4a, 5-(3-(Benzyloxy)phenyl)-7-imino-7,8-dihydropyrimido[4,5-d]pyrimidine-2,4 (^1H,3H)-dione]  248 nM
2. [H]/N=c1\nc(-c2ccc(OC)c(O)c2)c2c(=O)[nH]c(=O)[nH]c2[nH]1 [Compound 4c, 5-(3-Hydroxy-4-methoxyphenyl)-7-imino-7,8-dihydropyrimido[4,5-d]pyrimidine-2,4 (^1H,3H)-dione]  218 nM
3. [H]/N=c1\nc(-c2ccc(OC)c(O)c2)c2c(=O)n(C)c(=O)n(C)c2[nH]1 [Compound 4d, 5-(3-Hydroxy-4-methoxyphenyl)-7-imino-1,3-dimethyl-7,8-dihydropyrimido[4,5-d]pyrimid-ine-2,4 (^1H,3H)-dione]  106 nM
4. [H]/N=c1\nc(-c2ccc(OCc3ccccc3)cc2)c2c(=O)[nH]c(=O)[nH]c2[nH]1 [Compound 4b, 5-(4-(Benzyloxy)phenyl)-7-imino-7,8-dihydropyrimido[4,5-d]pyrimidine-2,4 (^1H,3H)-dione]  90.9 nM
